# According to article PMC5700124 (Scientific Reports, 2017):
# Values joined by “and” are separate entries in the source; they are usually repeats but may differ in a detail not shown here. Equal values may be shown once. Read-outs that look alike come from different tables or passages of the source.
# Columns and labels:
# [1] = design: method as in Jakobsen et al.[14]; settings: pigs; challenge, compared with yohimbine; ref Jakobsen et al.[14]; cited from earlier work
# [2] = tested on: [^11C]mirtazepin binding in porcine brain; design: method as in Smith et al.[34]; settings: ref Smith et al.[34], cited from earlier work
# α2 adrenoceptors [3] = tested on: α2 adrenoceptors; design: method as in Jakobsen and colleagues[14]; settings: porcine brain; low dose 0.15 mg/kg vs 0.7 mg/kg; ref Jakobsen and colleagues[14]; cited from earlier work
# α2 adrenoceptor subtypes = tested on: α2 adrenoceptor subtypes; design: method as in PMID 7908054; settings: cited from earlier work
# α2 adrenoceptor [4] = settings: parieto-occipital cortex, pH 7.5, 25.0 °C, mg^2+ 1 mM, blocking of NS adrenaline 10 μM, cited from earlier work
# α2 adrenoceptor [5] = target: α2 adrenoceptor; design: method as in Rout et al.[32]; settings: cortex, pH 7.0, 25.0 °C, blocking of NS noradrenaline 100 μM, ref Rout et al.[32], cited from earlier work
# α2 adrenoceptor [6] = settings: cerebral cortex, pH 7.4, 25.0 °C, mg^2+ 0, blocking of NS phentolamine 10 μM, cited from earlier work
# α2 adrenoceptors [7] = assay: Eadie-Hofstee Plot of PET binding potentials (receptor density Bmax and KD in vivo); design: species or system rat
# Excerpt: The values of BPND enabled us to determine the α2 adrenoceptor density in vivo. As presented in Fig. 4A, we estimated values of receptor density, Bmax, and receptor affinity (1/KD) by means of Eadie-Hofstee plots. We calculated the bound quantity according to eq. 2, based on the information of the BPND and specific activity. We found the greatest receptor densities in thalamus, caudate putamen, and cortical areas, with the lowest densities in cerebellum and olfactory bulb as presented in Fig. 4B. The regional receptor densities are listed in detail in Table 2 and specific activity in Table 3.
# We derived the present method from well-known principles of kinetics. We identified the following six steps to the determination of binding parameters of radioligands that achieve receptor occupancy. […] The variable B is the bound quantity of the ligand, and BPND is the binding potential of the radioligand at the specific degree of occupancy. To solve the equation of the Eadie-Hofstee plot for the two parameters, it is necessary to know the bound quantities of the ligand and the binding potentials in at least two conditions of different occupancy. The bound quantity is related to the binding potential by the relationship,2 B=M(BPND/1+BPND), where M is the total mass of the ligand per unit volume of brain tissue, calculated from the known specific activity of the radioligand.
# The sixth and final step was the graphical solution to the Eadie-Hofstee Plot of eq. (1) (Eadie 1952, Hofstee 1952), where B is the bound quantity and BPND is the binding potential of ligands. We calculated the bound quantity from the relationship described by eq. 2.
# plasma proteins = settings: in the circulation; cited from earlier work
# α2 adrenoceptors [8] = assay: PET of [^11C]yohimbine binding in rat brain at baseline and at challenge with unlabeled yohimbine; settings: for Volumes of Distribution, VT, BASE: baseline; for Volumes of Distribution, VT, BASE / Volumes of Distribution, VT, COLD: individual rats 1-5; for Volumes of Distribution, VT, COLD: challenge with unlabeled yohimbine 0.3 mg/kg i.v.
# α2 adrenoceptors [9] = settings: cited from earlier work
smiles,measurement,setting,value
COC1(C2=NCCN2)COc2ccccc2O1 (stereo not shown) [RX821002],effect on CBF,[1],opposite effect
same,reduction of [^11C]mirtazepin binding,[2]; 0.1 mg/kg,35%
same,reduction of [^11C]mirtazepin binding,[2]; 1 mg/kg,failed to inhibit the binding further
same,decline of VT of [^11C]yohimbine,α2 adrenoceptors [3],greater decline of the value of VT than the higher dose of 0.7 mg/kg
same,affinity to α2 adrenoceptor subtypes,α2 adrenoceptor subtypes,higher affinity to α2A and α2C than to α2B
COC1(C2=NCCN2)COc2ccccc2O1 (stereo not shown) [[^3H]RX821002],Kd,α2 adrenoceptor [4]; ref Ribas et al.[7],0.57 nM
same,Kd,α2 adrenoceptor [4]; ref Ribas et al.[68],0.5 nM
COC(=O)[C@@H]1[C@H]2C[C@H]3c4[nH]c5ccccc5c4CCN3C[C@@H]2CC[C@@H]1O [[^3H]yohimbine],Kd,α2 adrenoceptor [5]; mg^2+ 0 mM,[…]
same,Kd,α2 adrenoceptor [6]; ref Brown et al.[44],5.2 nM
same,Kd,α2 adrenoceptor [6]; ref Brown et al.[45],5.3 nM
[11CH3]OC(=O)[C@@H]1[C@H]2C[C@H]3c4[nH]c5ccccc5c4CCN3C[C@@H]2CC[C@@H]1O [[^11C]yohimbine],fraction bound to plasma proteins,plasma proteins,82%
same,radioactive metabolites in plasma,α2 adrenoceptors [9]; data from two rats,no radioactive metabolites
CC(N)Cc1ccccc1 (stereo not shown) [amphetamine],change of VND(b) and fP of [^11C]yohimbine,α2 adrenoceptors [9]; amphetamine 2 mg/kg challenge,did not change
